Measured values taken from ChEMBL document CHEMBL1201862, “PubChem BioAssay data set” (2004).
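Five compound concentrations were applied to cells in 96-well plates for 48 hours; endpoints were derived by simple linear interpolation of the resulting dose-response curve. GI50 marks 50% less growth.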 Calls of active or inactive are those of the source. Cut-off read from the data, not from the text of the source: active = GI50 up to about 1.1 µM and inactive = higher.

Columns and labels:
Assay in all cases: NCI-60 cell line screen, 48 h
SNB-75 = test system: SNB-75
OVCAR-5 = test system: OVCAR-5
RXF 393 = test system: RXF 393
EKVX = test system: EKVX
SF-268 = test system: SF-268
A498 = test system: A498
SK-MEL-5 = test system: SK-MEL-5
UACC-62 = test system: UACC-62
K562 = test system: K562
SNB-19 = test system: SNB-19
SN12C = test system: SN12C
MOLT-4 = test system: MOLT-4
LOX IMVI = test system: LOX IMVI
Malme-3M = test system: Malme-3M
HCT-116 = test system: HCT-116
HCT-15 = test system: HCT-15
OVCAR-3 = test system: OVCAR-3
M14 = test system: M14
TK-10 = test system: TK-10
ACHN = test system: ACHN

Measured: GI50

COC(=O)C1C(O)C(C)C(O)OC1C(C)C(O)C(C)/C=C\C=C(/C)C(=O)Nc1c(C)c(OC(C)=O)c2c(c1O)C(=O)C(C)=C1OCOC(/C(C)=C/C(C)=O)=C12 (centres undefined)
inactive: SNB-75 3.77 µM | OVCAR-5 13.5 µM | RXF 393 13 µM | EKVX 11.9 µM | SF-268 3.08 µM | A498 15.2 µM | SK-MEL-5 12.8 µM | UACC-62 14.3 µM | K562 16.5 µM | SNB-19 15.1 µM | SN12C 12.4 µM | MOLT-4 10.7 µM | LOX IMVI 13.7 µM | Malme-3M 13.5 µM | HCT-116 9.53 µM | OVCAR-3 9.38 µM
14.3 µM: HCT-15

O=S(=O)(O)c1ccc(/N=N\c2ccc(/N=N\c3ccc(/C=C/c4ccc(/N=[N+](/[O-])c5ccc(/C=C/c6ccc(/N=N/c7ccc(/N=N\c8ccc(S(=O)(=O)O)cc8)cc7)cc6S(=O)(=O)O)c(S(=O)(=O)O)c5)cc4S(=O)(=O)O)c(S(=O)(=O)O)c3)cc2)cc1
inactive: SNB-75 69.7 µM | OVCAR-5 > 100 µM | RXF 393 > 100 µM | EKVX > 100 µM | SF-268 > 100 µM | A498 > 100 µM | SK-MEL-5 > 100 µM | UACC-62 > 100 µM | K562 > 100 µM | SNB-19 > 100 µM | SN12C > 100 µM | MOLT-4 > 100 µM | LOX IMVI > 100 µM | Malme-3M > 100 µM | HCT-116 > 100 µM | OVCAR-3 > 100 µM
> 100 µM: HCT-15

OC(c1cccnc1Cl)c1nc2ccccc2c2ccnc(Cl)c12 (centres undefined)
inactive: SNB-75 15 µM | OVCAR-5 9.51 µM | RXF 393 4.12 µM | EKVX 19.2 µM | M14 2.08 µM | SF-268 6.21 µM | A498 3.23 µM | SK-MEL-5 3.46 µM | UACC-62 2.06 µM | K562 1.4 µM | SNB-19 6.82 µM | SN12C 3.6 µM | TK-10 24.3 µM | MOLT-4 3.67 µM | LOX IMVI 7.01 µM | ACHN 9.91 µM | Malme-3M 6.92 µM | HCT-116 3.35 µM | OVCAR-3 6.08 µM
3.04 µM: HCT-15

C=C1C(=O)OC2/C=C(\C(=O)O)CC/C=C(\C)CC(OC(=O)/C=C(\C)CC)C12 (centres undefined)
inactive: SNB-75 19.5 µM | OVCAR-5 13.5 µM | RXF 393 14 µM | EKVX 24.7 µM | M14 16.7 µM | SF-268 14.9 µM | A498 17.9 µM | SK-MEL-5 18.8 µM | UACC-62 14.3 µM | K562 > 100 µM | SNB-19 18.9 µM | SN12C 17 µM | TK-10 34.6 µM | MOLT-4 > 100 µM | LOX IMVI 15.3 µM | ACHN 17 µM | Malme-3M 18.2 µM | HCT-116 12.9 µM | OVCAR-3 16.3 µM
14.6 µM: HCT-15
